Read-outs that look alike come from different tables or passages of the source.
Experiments:
[1] = target: T1, human A2A adenosine receptor (Homo sapiens, UniProt P29274); assay: [3H]ZM241385 binding to human A2A receptors expressed in CHO cells
T1 construct: expressed in transfected cells; host or cells: CHO cells (membranes)
Method in brief: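 Membranes from adherent CHO cells, resuspended in 50 mM Tris HCl with 10 mM MgCl2, pH 7.4. The inhibitory binding constant is reported.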

[2] = target: T2, human A2B adenosine receptor (Homo sapiens, UniProt P29275); assay: Cyclic AMP assay, antagonism of NECA-stimulated cAMP in CHO cells transfected with human A2B receptors; format: cell-based
T2 sequence (P29275 1-332): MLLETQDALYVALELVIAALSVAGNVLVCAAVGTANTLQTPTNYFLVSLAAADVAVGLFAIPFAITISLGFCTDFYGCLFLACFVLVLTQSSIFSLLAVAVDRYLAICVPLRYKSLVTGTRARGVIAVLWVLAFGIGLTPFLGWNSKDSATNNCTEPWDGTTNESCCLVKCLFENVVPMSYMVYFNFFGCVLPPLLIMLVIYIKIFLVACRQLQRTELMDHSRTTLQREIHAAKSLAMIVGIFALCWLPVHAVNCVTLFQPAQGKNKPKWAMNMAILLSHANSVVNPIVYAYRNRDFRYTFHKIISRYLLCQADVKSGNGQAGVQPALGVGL
Method: Measurement of cyclic AMP (CAMP) levels in CHO cells transfected with human A2B adenosine receptors was performed in the following manner. CHO cells transfected with human A2B adenosine receptors were washed with phosphate-buffered saline, diluted tripsine and centrifuged for 10 minutes at 200 g.
The reaction was terminated by the addition of cold 6% thrichloroacetic acid (TCA). The TCA suspension was centrifuged at 2000 g for 10 minutes at 4° C. and the supernatant was extracted four times with water saturated diethyl ether. The final aqueous, solution was tested for cAMP levels by a competition protein binding assay. Samples of cAMP standard (0–10 pmoles) were added to each test tube containing the incubation buffer (trizma base 0.1 M, aminophylline 8.0 mM, 2-mercaptoethanol 6.0 mM, pH 7.4) and [H^3]-cAMP in a total volume of 0.5 ml. The binding protein previously prepared from beef adrenals, was added to the samples previously incubated at 4° C. for 150 minutes, and after the addition of charcoal were centrifuged at 2000 g for 10 minutes. The clear supernatant was counted in a Beckman scintillation counter.
Finally, to evaluate the regulation of adenylyl cyclase activity and to test whether the binding parameters correlated with the functional response, the IC50 values were obtained for inhibition of cAMP production by antagonists. In particular, we evaluated the capability of the several compounds to inhibit NECA (100 nM)-stimulated cyclic AMP accumulation.

[3] = target: T3, human A1 adenosine receptor (Homo sapiens, UniProt P30542); assay: [3H]DPCPX binding to human A1 receptors expressed in CHO cells; details: geometric mean (95% confidence interval); >1000 = no appreciable binding
T3 construct: expressed in transfected cells; host or cells: CHO cells (membranes)
T3 sequence (P30542 1-326): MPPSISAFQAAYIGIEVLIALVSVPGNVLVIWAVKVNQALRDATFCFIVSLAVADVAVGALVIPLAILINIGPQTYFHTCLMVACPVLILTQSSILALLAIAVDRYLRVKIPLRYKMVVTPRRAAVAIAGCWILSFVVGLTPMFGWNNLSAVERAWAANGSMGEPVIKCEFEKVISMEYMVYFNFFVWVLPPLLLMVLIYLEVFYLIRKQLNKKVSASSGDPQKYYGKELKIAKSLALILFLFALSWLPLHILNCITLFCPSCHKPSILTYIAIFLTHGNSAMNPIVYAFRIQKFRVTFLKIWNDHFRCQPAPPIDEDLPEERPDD

[4] = target: T4, human A3 adenosine receptor (Homo sapiens, UniProt P0DMS8); assay: [3H]MRE3008F20 binding to human A3 receptors expressed in CHO cells
T4 construct: expressed in transfected cells; host or cells: CHO cells (membranes)
T4 sequence (P0DMS8 1-318): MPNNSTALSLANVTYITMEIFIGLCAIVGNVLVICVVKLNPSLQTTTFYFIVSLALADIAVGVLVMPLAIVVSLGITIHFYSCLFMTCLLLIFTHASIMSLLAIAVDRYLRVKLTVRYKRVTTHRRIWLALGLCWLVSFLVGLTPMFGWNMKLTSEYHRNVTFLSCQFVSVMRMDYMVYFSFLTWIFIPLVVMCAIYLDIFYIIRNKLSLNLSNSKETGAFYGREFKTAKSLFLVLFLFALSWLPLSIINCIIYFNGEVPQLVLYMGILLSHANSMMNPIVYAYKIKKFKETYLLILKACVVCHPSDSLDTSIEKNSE
Method in brief: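 CHO cell membranes (50 μg protein) competed against 1 nM [3H]-MRE3008-F20 in 50 mM Tris HCl, MgCl2, pH 7.4, with 6–8 ligand concentrations in duplicate, 120 minutes at 4° C. Filter-bound radioactivity counted by scintillation; inhibitory binding constants derived.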

[5] = target: T2, human A2B adenosine receptor; assay: [3H]DPCPX binding to human A2B receptors expressed in HEK293 cells; set-up: host or cells: HEK 293 cells (membranes)
Method in brief: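 Membranes (20 μg protein) from HEK293 cells expressing recombinant human A2B receptor were incubated 60 min at 25° C with 40 nM [3H]-DPCPX and 6–8 compound concentrations. Buffer was Tris-HCl with MgCl2, 1 mM EDTA, 0.1 mM benzamidine and 2 IU/ml adenosine deaminase, pH 7.4. Filter-bound radioactivity gave the inhibitory binding constant.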

[6] = read-out: Ki, [3H]ZM241385 binding to human A2A receptors expressed in CHO cells
[7] = inhibition of NECA (100 nM)-stimulated cAMP, geometric mean (95% confidence limits)
[8] = Table 2, geometric mean (95% confidence limits), at least three experiments in duplicate, read-out: [3H]-DPCPX binding to human A2B receptors in HEK 293 cells Ki
[9] = geometric mean (95% confidence interval), >1000 = no appreciable binding, read-out: Ki, [3H]DPCPX binding to human A2B receptors expressed in HEK293 cells

T1 sequence (P29274 whole entry): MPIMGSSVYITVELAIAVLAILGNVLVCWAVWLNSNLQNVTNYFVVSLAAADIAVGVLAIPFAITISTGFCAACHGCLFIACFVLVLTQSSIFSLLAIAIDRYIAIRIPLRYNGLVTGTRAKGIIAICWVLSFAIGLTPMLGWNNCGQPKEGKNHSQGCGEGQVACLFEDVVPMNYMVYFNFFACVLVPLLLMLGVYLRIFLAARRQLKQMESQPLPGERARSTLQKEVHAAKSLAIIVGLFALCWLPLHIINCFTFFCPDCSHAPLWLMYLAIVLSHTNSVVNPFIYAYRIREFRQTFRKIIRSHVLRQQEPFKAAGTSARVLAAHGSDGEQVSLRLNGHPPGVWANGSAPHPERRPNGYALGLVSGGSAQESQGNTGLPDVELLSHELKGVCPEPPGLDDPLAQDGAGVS

Ki [1, 6]	IC50 [2, 7]	Ki [3]	Ki [4]	Ki [5, 8]	Ki [5, 9]	IC50 [2]	Structure (SMILES)	Ki [1]
> 1000 nM	93 nM	56 nM	> 1000 nM	13 nM	13 nM		CCCn1c(=O)c2[nH]c(-c3cc(NC(=O)Cc4ccc(OCc5ccccc5C(F)(F)F)cc4)nn3C)nc2n(CCC)c1=O [AS29, N-[5-(2,6-dioxo-1,3-dipropyl-2,3,6,9-tetrahydro-1H-purin-8-yl)-1-methyl-1H-pyrazol-3-yl]-2-(4-{[2-(trifluoromethyl)benzyl]oxy}phenyl)acetamide]	
> 1000 nM		448 nM	> 1000 nM	39 nM	39 nM	136 nM	CCCn1c(=O)c2[nH]c(-c3cc(NC(=O)Nc4cccc(Cl)c4)nn3C)nc2n(CCC)c1=O [AS54, N-(3-chlorophenyl)-N'-[5-(2,6-dioxo-1,3-dipropyl-2,3,6,7-tetrahydro-1H-purin-8-yl)-1-methyl-1H-pyrazol-3-yl]urea]	
> 1000 nM	108 nM	150 nM	> 1000 nM	20 nM	20 nM		CCCn1c(=O)c2[nH]c(-c3cc(OCC(=O)Nc4ccc(Br)cc4)nn3C)nc2n(CCC)c1=O [AS65, 2-{[5-(2,6-dioxo-1,3-dipropyl-2,3,6,9-tetrahydro-1H-purin-8-yl)-1-methyl-1H-pyrazol-3-yl]oxy}-N-(4-bromophenyl)acetamide]	

Structure (SMILES)	Ki [1, 6]	IC50 [2, 7]	Ki [3]	Ki [4]	Ki [5, 8]	Ki [5, 9]	IC50 [2]	Ki [1]
CCCn1c(=O)c2[nH]c(-c3cc(NC(=O)Cc4ccc5c(c4)OCO5)nn3C)nc2n(CCC)c1=O [AS57, 2-(1,3-benzodioxol-5-yl)-N-[5-(2,6-dioxo-1,3-dipropyl-2,3,6,9-tetrahydro-1H-purin-8-yl)-1-methyl-1H-pyrazol-3-yl]acetamide]		95 nM	566 nM	> 1000 nM	18 nM	18 nM		1250 nM

— patent US7205403B2, “8-Heteroaryl xanthine adenosine A2B receptor antagonists” (King Pharmaceuticals Research and Development, Inc., priority 2002, dated 2007)
